Laboratory results from ChEMBL document CHEMBL5725543, “Aniline derivative, pharmaceutical composition containing same, and use thereof” (2017).

Target: Sphingosine 1-phosphate receptor 1 (Homo sapiens, UniProt P21453)
Experiment: BCA Protein Assay: Inhibitory activity evaluation was performed by multi-screen (registered trademark) HTS 96-well plate (Millipore) using the cell membrane fraction stably expressing S1P1 obtained by the above operation. 25 μL of assay solution (50 mM Tris, 100 mM sodium chloride, 5 mM magnesium chloride, 1 mM EDTA, 1 mM DTT (dithiothreitol), 10 μM GDP (guanosine diphosphate) and 0.5% BSA (bovine serum albumin), pH 7.4), 25 μL of test compounds solution diluted by assay solution and 25 μL of the membrane fraction (0.2 μg protein/μL) were added to each well, and the mixture was gently shaken at room temperature: for 30 minutes. Then, 25 μL of 35S-GTP, and 25 μL of 50 nM S1P1 receptor selective agonist (1-[4-(4-phenyl-5-trifluoromethylthiophen-2-ylmethoxy)benzyl]azetidine-3-carboxylic acid, ¿J. Med. Chem.¿, 2004, vol. 47, pp. 6662-6665, compound 18) were added to each well, respectively, and it was reacted at room temperature for 60 minutes. After the reaction, a reaction solution of each well was suction-filtered. After suction filtration, ice-colded wash solution (50 mM Tris, 100 mM sodium chloride, […] and 1 mM EDTA, pH 7.4) was added to each well, and moreover filters were washed by suction filtration. This wash procedure was performed three times. A bottom of the plate containing the filters was dried at 60° C. […]

Sphingosine 1-phosphate receptor 1, sequence (P21453 whole entry): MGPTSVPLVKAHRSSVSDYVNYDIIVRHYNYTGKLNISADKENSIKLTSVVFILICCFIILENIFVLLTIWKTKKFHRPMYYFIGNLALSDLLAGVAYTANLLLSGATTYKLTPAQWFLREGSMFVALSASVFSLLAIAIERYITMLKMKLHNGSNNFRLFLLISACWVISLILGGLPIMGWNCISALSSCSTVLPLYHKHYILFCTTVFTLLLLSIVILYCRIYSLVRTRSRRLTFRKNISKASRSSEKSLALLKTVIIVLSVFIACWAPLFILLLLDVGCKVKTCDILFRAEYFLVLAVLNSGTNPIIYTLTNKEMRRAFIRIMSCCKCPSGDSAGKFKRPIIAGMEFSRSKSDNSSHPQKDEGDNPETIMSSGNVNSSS

For `CCN(c1ccc(Cl)c(C)c1)C(CO)c1cccc(CN2CC(C(=O)O)C2)c1` (stereo unspecified), the IC50 was 11.2 nM.
